Results taken from US4416885A, “Use of isopropylaminopyrimidine in the chemotherapy of muscular dystrophy, myopathy and myotonia” (priority 1982, dated 1983).

Columns and labels:
[1] = system: plasma PK (pyruvate kinase); assay: Plasma PK; format: in vivo, chicken
Protocol: Chemotherapy was assessed by application of seven different parameters: physical tests of muscular disability, namely the flip test and wing apposition (W.A.) measurements; biochemical assays of serum and muscle enzume levels of creatine phosphokinase (CPK), pyruvate kinase (PK) and acetylcholinesterase (AChE); and histological comparisons of treated and untreated muscle. Toxicity studies (weight loss, etc.) were also used. A very comprehensive profile of the drug was thus obtained which related to all the known, highly characteristic features of the disease which are applicable to both the animal model and the human.
A massive rise in this enzyme level also occurs in the dystrophic chicken compared to the normal control, as it does in the human disease.
The drug was administered daily in water, injected intra-peritoneally, the amount being adjusted on a weekly basis according to the animal's weight.
Finally, oral therapy with IAPP was undertaken at gradually increasing dosages up to 1 g/Kg/day. The parameters (physical, biochemical and histological) measured previously were again used to test the efficacy of the drug; five different dosages were used orally, each being given for 30-60 days, daily (Tables VII-XI). A total of 75 animals were treated in the current study with IAPP and 70 control animals were used.

Carrier monocytes = assay: Effect on human monocytes in culture (flat cells), carrier; format: cell-based; details: carrier monocytes + IAPP, six individuals, cultured 5-7 days; without IAPP 35.3%; preliminary
Description: In the experiments adding IAPP to such cultures, the preliminary results were as follows: […]

[2] = system: 413 dystrophic skeletal explants; assay: Effect on dystrophic skeletal explants in cell culture (microtubules); format: cell-based, chicken; details: upon incubation in IAPP, 0.5 mg/ml; skeletal and cardiac explants
Protocol: In these experiments 2-week and 3-week normal and dystrophic chickens (that had no previous injections with IAPP) were sacrificed and skeletal and cardiac explants were placed in culture with 0.5 mg/ml IAPP added. The pooled results of these experiments are as follows: […]

normal chickens 412 [3] = assay: Experiment 4, flip test (25 flips), normal chickens; format: in vivo, chicken
Protocol: (§1) All chickens were injected with 50 mg/Kg IAPP and weighed approximately every second or third day.
(§2) B, C, D: Experimental-injected with 50 mg/Kg IAPP

[4] = system: dystrophic New Hampshire chickens, line 413; assay: Toxicity (weight change, other symptoms) in dystrophic chickens; format: in vivo, chicken
normal chickens 412 [5] = assay: Experiment 4, weight of normal chickens injected with IAPP; format: in vivo, chicken; details: 50 mg/Kg
Protocol: as §1
A: Control-injected with PBS
as §2

Dystrophic monocytes = assay: Effect on human monocytes in culture (flat cells), dystrophic; format: cell-based; details: dystrophic monocytes + IAPP, six individuals, cultured 5-7 days; without IAPP 36.2%; preliminary
[6] = 200 mg/Kg i.p. daily for 30 days, day 28 ex ovo
[7] = 200 mg/Kg i.p. daily for 30 days, day 56 ex ovo
[8] = 200 mg/Kg i.p. daily for 30 days, day 84 ex ovo
[9] = 300 mg/Kg i.p. daily for 30 days, day 28 ex ovo
[10] = 300 mg/Kg i.p. daily for 30 days, day 56 ex ovo
[11] = 300 mg/Kg i.p. daily for 30 days, day 84 ex ovo
[12] = 300 mg/Kg i.p. three times weekly for 30 days, day 84 ex ovo
[13] = Table VII, oral 200 mg/Kg, 60 days, day 28 ex ovo
[14] = Table VII, oral 200 mg/Kg, 60 days, day 35 ex ovo
[15] = oral 300 mg/Kg daily, day 28 ex ovo
[16] = oral 300 mg/Kg daily, day 35 ex ovo
[17] = oral 450 mg/Kg daily for 45 days, day 35 ex ovo
[18] = oral 450 mg/Kg daily for 45 days, day 50 ex ovo
[19] = oral 600 mg/Kg daily, day 35 ex ovo
[20] = oral 600 mg/Kg daily, day 50 ex ovo
[21] = oral 1 g/Kg daily, day 28 ex ovo
[22] = oral 1 g/Kg daily, day 35 ex ovo

In the case of CC(C)Nc1ncccn1.O=P(O)(O)O [IAPP, 2-isopropylaminopyrimidine orthophosphate], the PK [1, 6] is reported as 377, the “PK, % change from control” value [1, 6] is reported as -47% and the PK [1, 7] is reported as 1612. For the same molecule, the “PK, % change from control” value [1, 7] was -45%, the PK [1, 8] was 2949 and the “PK, % change from control” value [1, 8] was -36%. For the same molecule, the PK [1, 9] was 429, the “PK, % change from control” value [1, 9] was -40% and the PK [1, 10] was 2447. For the same molecule, the “PK, % change from control” value [1, 10] was -16%, the PK [1, 11] was 5282 and the “PK, % change from control” value [1, 11] was “+15%”. The “PK, % change from control” value ([1]; 300 mg/Kg i.p. three times weekly for 30 days, day 28 ex ovo) was -30%, the PK ([1]; 300 mg/Kg i.p. three times weekly for 30 days, day 56 ex ovo) was 2486 and the PK [1, 12] was 3766. The “PK, % change from control” value [1, 12] was -18%, the “% PK Change vs untreated dystrophic controls” value (“% PK Change” below) ([1]; Exp. 2, 40 mg/Kg i.p. daily, day 14-20) was -38% and the “% PK Change” value ([1]; Exp. 2, 40 mg/Kg i.p. daily, day 21-27) was -57%. For the same molecule, the “% PK Change” value ([1]; Exp. 2, 40 mg/Kg i.p. daily, day 28-34) was -60%, the “% PK Change” value ([1]; Exp. 2, 40 mg/Kg i.p. daily, day 35-41) was -48% and the “% PK Change” value ([1]; Exp. 2, 40 mg/Kg i.p. daily, day 42-48) was -58%. The “% PK Change” value ([1]; Exp. 2, 40 mg/Kg i.p. daily, day 56-62) was -42%, the “% PK Change” value ([1]; Exp. 2, 40 mg/Kg i.p. daily, day 63-71) was -41% and the “% PK Change” value ([1]; Exp. 3, 70 mg/Kg i.p. daily, day 21-27) was -32%. For the same molecule, the “% PK Change” value ([1]; Exp. 3, 70 mg/Kg i.p. daily, day 28-34) was -65%, the PK [1, 13] was 1925 and the “PK, % change from control” value [1, 13] was -4%. The PK [1, 14] was 2150, the “PK, % change from control” value [1, 14] was “+6%” and the PK [1, 15] was 2010. For the same molecule, the “PK, % change from control” value [1, 15] was “+1%”, the PK [1, 16] was 907 and the “PK, % change from control” value [1, 16] was “+28%”. For the same molecule, the PK [1, 17] was 2520, the “PK, % change from control” value [1, 17] was “+0.6%” and the PK [1, 18] was 3891. The “PK, % change from control” value [1, 18] was “+7%”, the PK [1, 19] was 1639 and the “PK, % change from control” value [1, 19] was -36%. For the same molecule, the PK [1, 20] was 2824, the “PK, % change from control” value [1, 20] was -22% and the PK [1, 21] was 1080. For the same molecule, the “PK, % change from control” value [1, 21] was -48%, the PK [1, 22] was 1812 and the “PK, % change from control” value [1, 22] was -50%. For the same molecule, the “% Flat Cells” value (Carrier monocytes) was 50.0%, the “Staining of microtubules in dystrophic cells in culture” value [2] was “appears to normalize upon incubation in IAPP” and the “Fatigue in flip test” value (normal chickens 412 [3]; 412D, day 25, 50 mg/Kg) was “did not fatigue”. The Flip test outcome (normal chickens 412 [3]; normal drug injected chickens, 50 mg/Kg) was “able to pass the flip test”, the “Maximum Weight Loss” value ([4]; 300 mg/Kg i.p. three times weekly for 30 days) was 17% and the “Weight loss / toxic symptoms” value ([4]; initial single injection 50 mg/Kg, over 7 days) was “no weight loss over 7 days, nor any other toxic symptoms”. For the same molecule, the “Maximum Weight Loss” value ([4]; oral 600 mg/Kg daily) was 4%, the “Maximum weight loss, reduction from control values” ([4]; oral therapy, all doses) was 7% and the Weight (normal chickens 412 [5]; Exp. 4, 412B, day 1) was 51.3 GRAMS. The Weight (normal chickens 412 [5]; Exp. 4, 412B, day 4) was 55.8 GRAMS, the Weight (normal chickens 412 [5]; Exp. 4, 412B, day 7) was 67.6 GRAMS and the Weight (normal chickens 412 [5]; Exp. 4, 412B, day 9) was 68.1 GRAMS. It also gave a Weight (normal chickens 412 [5]; Exp. 4, 412C, day 1) of 50.8 GRAMS, a Weight (normal chickens 412 [5]; Exp. 4, 412C, day 4) of 59.9 GRAMS and a Weight (normal chickens 412 [5]; Exp. 4, 412C, day 7) of 67.8 GRAMS. The Weight (normal chickens 412 [5]; Exp. 4, 412C, day 9) was 67.7 GRAMS, the Weight (normal chickens 412 [5]; Exp. 4, 412C, day 11) was 76.4 GRAMS and the Weight (normal chickens 412 [5]; Exp. 4, 412C, day 14) was 111.8 GRAMS. It also gave a Weight (normal chickens 412 [5]; Exp. 4, 412C, day 16) of 139.0 GRAMS, a Weight (normal chickens 412 [5]; Exp. 4, 412C, day 17) of 150.2 GRAMS and a Weight (normal chickens 412 [5]; Exp. 4, 412D, day 1) of 52.6 GRAMS. It also gave a Weight (normal chickens 412 [5]; Exp. 4, 412D, day 4) of 60.5 GRAMS, a Weight (normal chickens 412 [5]; Exp. 4, 412D, day 7) of 67.7 GRAMS and a Weight (normal chickens 412 [5]; Exp. 4, 412D, day 9) of 67.7 GRAMS. It also gave a Weight (normal chickens 412 [5]; Exp. 4, 412D, day 11) of 76.6 GRAMS, a Weight (normal chickens 412 [5]; Exp. 4, 412D, day 14) of 112.8 GRAMS and a Weight (normal chickens 412 [5]; Exp. 4, 412D, day 16) of 139.6 GRAMS. For the same molecule, the Weight (normal chickens 412 [5]; Exp. 4, 412D, day 20) was 191.5 GRAMS, the Weight (normal chickens 412 [5]; Exp. 4, 412D, day 22) was 246.4 GRAMS and the Weight (normal chickens 412 [5]; Exp. 4, 412D, day 25) was 273.4 GRAMS. The “% Flat Cells” value (Dystrophic monocytes) was 45.1%.
